Laboratory results as given in patent US20210122739A1, “NOVEL SULFONAMIDE CARBOXAMIDE COMPOUNDS” (Inflazome Limited, priority 2017, published 2021).

Tests used:
NLRP3 [1] = target: T1, NLRP3 (Homo sapiens, UniProt Q96P20); assay: Human whole blood IL1β release assay; format: cell-based; design: Plate out 80 μl of whole blood containing 1 μg/ml of LPS; from tissue; host or cells: human whole blood from healthy donors, LPS-primed, nigericin-stimulated; conditions: 1 μg/ml LPS, nigericin 10 μM, IL-1β by AlphaLisa, read-out: HWB IC50
Method: For systemic delivery, the ability to inhibit NLRP3 when the compounds are present within the bloodstream is of great importance. For this reason, the NLRP3 inhibitory activity of a number of compounds in human whole blood was investigated in accordance with the following protocol.
Human whole blood in Li-heparin tubes was obtained from healthy donors from a volunteer donor panel. • 1. Plate out 80 μl of whole blood containing 1 μg/ml of LPS in 96-well, clear bottom cell culture plate (Corning #3585) • 2. Add 10 μl compound (8 points half-log dilution with 10 μM top dose) or vehicle (DMSO 0.1% FAC) to the appropriate wells • 3. Incubate for 3 hrs at 37° C., 5% CO2 • 4. Add 10 μl Nigericin (Sigma #N7143) (10 μM FAC) to all wells • 5. Incubate for 1 hr at 37° C., 5% CO2 • 6. At the end of the incubation period, spin plates at 300×g for 5 mins to pellet cells and remove 20 μl of supernatant and add to 96-well v-bottom plates for IL-1β analysis (note: these plates containing the supernatants can be stored at −80° C. to be analysed at a later date) • 7. IL-1β was measured according to the manufacturer protocol (Perkin Elmer-AlphaLisa IL-1 Kit AL220F-5000) • 8. IC50 data is fitted to anon-linear regression equation (log inhibitor vs response-variable slope 4-parameters)

NLRP3 [2] = target: T1, NLRP3; assay: THP-1 cells pyroptosis assay; format: cell-based; design: Seed THP-1 cells (25,000 cells/well) containing 1.0 μg/ml LPS; host or cells: THP-1 cells, LPS-primed, nigericin-stimulated; conditions: 1.0 μg/ml LPS, nigericin 5 μM, resazurin readout
Text: It is well established that the activation of NLRP3 leads to cell pyroptosis and this feature plays an important part in the manifestation of clinical disease (Yan-gang Liu et al., Cell Death & Disease, 2017, 8(2), e2579; Alexander Wree et al., Hepatology, 2014, 59(3), 898-910; Alex Baldwin et al., Journal of Medicinal Chemistry, 2016, 59(5), 1691-1710; Ema Ozaki et al., Journal of Inflammation Research, 2015, 8, 15-27; Zhen Xie & Gang Zhao, Neuroimmunology Neuroinflammation, 2014, 1(2), 60-65; Mattia Cocco et al., Journal of Medicinal Chemistry, 2014, 57(24), 10366-10382; T. Satoh et al., Cell Death & Disease, 2013, 4, e644). Therefore, it is anticipated that inhibitors of NLRP3 will block pyroptosis, as well as the release of pro-inflammatory cytokines (e.g. IL-1β) from the cell.
THP-1 cells (ATCC #TIB-202) were grown in RPMI containing L-glutamine (Gibco #11835) supplemented with 1 mM sodium pyruvate (Sigma #S8636) and penicillin (100 units/ml)/streptomycin (0.1 mg/ml) (Sigma #P4333) in 10% Fetal Bovine Serum (FBS) (Sigma #F0804). The cells were routinely passaged and grown to confluency (˜10^6 cells/ml). On the day of the experiment, THP-1 cells were harvested and resuspended into RPMI medium (without FBS). The cells were then counted and viability (>90%) checked by Trypan blue (Sigma #T8154). Appropriate dilutions were made to give a concentration of 625,000 cells/ml. To this diluted cell solution was added LPS (Sigma #L4524) to give a 1 μg/ml Final Assay Concentration (FAC). 40 μl of the final preparation was aliquoted into each well of a 96-well plate. The plate thus prepared was used for compound screening.
The following method step-by-step assay was followed for compound screening. • 1. Seed THP-1 cells (25,000 cells/well) containing 1.0 μg/ml LPS in 40 μl of RPMI medium (without FBS) in 96-well, black walled, clear bottom cell culture plates coated with poly-D-lysine (VWR #734-0317) • 2. Add […] compound (8 points half-log dilution, with 10 μM top dose) or vehicle (DMSO 0.1% FAC) to the appropriate wells • 3. Incubate for 3 hrs at 37° C. in 5% CO2 • 4. Add 5 μl nigericin (Sigma #N7143) (FAC 5 μM) to all wells • 5. Incubate for 1 hr at 37° C. and 5% CO2 • 6. At the end of the incubation period, spin plates at 300×g for 3 mins and remove supernatant • 7. Then add 50 μl of resazurin (Sigma #R7017) (FAC 100 μM resazurin in RPMI medium without FBS) and incubate plates for a further 1-2 hrs at 37° C. and 5% CO2 • 8. Plates were read in an Envision reader at Ex 560 nm and Em 590 nm • 9. IC50 data is fitted to a non-linear regression equation (log inhibitor vs response-variable slope 4-parameters)

T1 sequence (Q96P20 whole entry): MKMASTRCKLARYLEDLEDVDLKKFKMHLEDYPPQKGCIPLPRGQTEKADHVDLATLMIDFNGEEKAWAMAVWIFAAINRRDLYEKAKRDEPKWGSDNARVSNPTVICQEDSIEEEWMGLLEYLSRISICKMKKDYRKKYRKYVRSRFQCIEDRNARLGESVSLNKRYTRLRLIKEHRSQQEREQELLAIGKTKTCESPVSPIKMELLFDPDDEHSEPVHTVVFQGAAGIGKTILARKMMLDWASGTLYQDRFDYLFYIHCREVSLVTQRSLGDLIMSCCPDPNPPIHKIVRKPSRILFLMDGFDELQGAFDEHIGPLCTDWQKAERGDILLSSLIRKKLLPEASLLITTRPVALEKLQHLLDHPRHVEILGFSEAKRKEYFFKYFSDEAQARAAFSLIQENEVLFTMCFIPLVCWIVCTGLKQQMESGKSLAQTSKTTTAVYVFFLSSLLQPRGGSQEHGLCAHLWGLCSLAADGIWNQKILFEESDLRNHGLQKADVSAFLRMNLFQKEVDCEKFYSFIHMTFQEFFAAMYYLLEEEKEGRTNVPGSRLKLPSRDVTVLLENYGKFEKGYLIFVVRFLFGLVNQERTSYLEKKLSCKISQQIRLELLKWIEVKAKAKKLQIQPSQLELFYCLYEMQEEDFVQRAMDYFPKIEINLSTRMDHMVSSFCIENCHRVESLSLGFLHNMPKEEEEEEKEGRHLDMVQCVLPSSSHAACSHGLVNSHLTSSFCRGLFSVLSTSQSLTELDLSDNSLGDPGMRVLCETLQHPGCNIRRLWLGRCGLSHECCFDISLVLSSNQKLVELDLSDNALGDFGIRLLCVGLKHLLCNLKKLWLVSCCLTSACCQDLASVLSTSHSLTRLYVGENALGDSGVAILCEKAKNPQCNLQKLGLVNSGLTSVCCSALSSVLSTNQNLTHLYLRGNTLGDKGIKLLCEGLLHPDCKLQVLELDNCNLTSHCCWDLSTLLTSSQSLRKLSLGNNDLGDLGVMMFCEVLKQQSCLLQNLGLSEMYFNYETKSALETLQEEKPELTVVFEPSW

SMILES	IC50 (NLRP3 [1]) [nM]	IC50 (NLRP3 [2]) [nM]
Cn1nc(S(=O)(=O)NC(=O)Nc2c3c(cc4c2CCC4)CCC3)cc1C(=O)N1CCC1 [Example 54, 5-(Azetidine-1-carbonyl)-N-((1,2,3,5,6,7-hexahydro-s-indacen-4-yl)carbamoyl)-1-methyl-1H-pyrazole-3-sulfonamide]	1600 to 3200	40 to 160
CC(C)c1ccc(C(C)C)c(NC(=O)NS(=O)(=O)c2cc(C(=O)N(C)C)n(C)n2)c1 [Example 44, 3-(N-((2,5-Diisopropylphenyl)carbamoyl)sulfamoyl)-N,N,1-trimethyl-1H-pyrazole-5-carboxamide]	3200 to 10000	160 to 640
COCCN(CCOC)C(=O)c1cc(S(=O)(=O)NC(=O)Nc2c(-c3ccnc(OC)c3)ccc3c2CCC3)nn1C [Example 80, N,N-Bis(2-methoxyethyl)-3-(N-((5-(2-methoxypyridin-4-yl)-2,3-dihydro-1H-inden-4-yl)carbamoyl)sulfamoyl)-1-methyl-1H-pyrazole-5-carboxamide]	< 400	160 to 640
CNC(=O)Cn1ccc(S(=O)(=O)NC(=O)Nc2c3c(cc4c2CCC4)CCC3)n1 [Example 2, 2-(3-(N-((1,2,3,5,6,7-Hexahydro-s-indacen-4-yl)carbamoyl)sulfamoyl)-1H-pyrazol-1-yl)-N-methylacetamide]	1600 to 3200	160 to 640
COCCN(CCOC)C(=O)c1cc(S(=O)(=O)NC(=O)Nc2c(-c3ccnc(OC(C)C)c3)cc(F)cc2C(C)C)nn1C [Example 79, 3-(N-((4-Fluoro-2-(2-isopropoxypyridin-4-yl)-6-isopropyl-phenyl)carbamoyl)sulfamoyl)-N,N-bis(2-methoxyethyl)-1-methyl-1H-pyrazole-5-carboxamide]	3200 to 10000	2560 to 10000
CC(C)Oc1cc(-c2cc(F)cc(C(C)C)c2NC(=O)NS(=O)(=O)c2cc(C(=O)N(C)C)n(C)n2)ccn1 [Example 81, 3-(N-((4-Fluoro-2-(2-isopropoxypyridin-4-yl)-6-isopropyl-phenyl)carbamoyl)sulfamoyl)-N,N,1-trimethyl-1H-pyrazole-5-carboxamide]	1600 to 3200	160 to 640
CC(C)c1cc(F)cc(C(C)C)c1NC(=O)NS(=O)(=O)c1cc(C(=O)N(C)C(C)C)n(C)n1 [Example 47, 3-(N-((4-Fluoro-2,6-diisopropylphenyl)carbamoyl)sulfamoyl)-N-isopropyl-N,1-dimethyl-1H-pyrazole-5-carboxamide]	400 to 800	40 to 160
COc1cc(-c2ccc3c(c2NC(=O)NS(=O)(=O)c2cc(C(=O)N(C)C)n(C)n2)CCC3)ccn1 [Example 82, 3-(N-((5-(2-Methoxypyridin-4-yl)-2,3-dihydro-1H-inden-4-yl)carbamoyl)sulfamoyl)-N,N,1-trimethyl-1H-pyrazole-5-carboxamide]	< 400	< 40
CC(=O)N(C)Cc1cc(S(=O)(=O)NC(=O)Nc2c3c(cc4c2CCC4)CCC3)nn1C(C)C [Example 29, N-((3-(N-((1,2,3,5,6,7-Hexahydro-s-indacen-4-yl)carbamoyl)sulfamoyl)-1-isopropyl-1H-pyrazol-5-yl)methyl)-N-methylacetamide]	400 to 800	40 to 160
CC(C)c1cc(F)cc(C2CCOCC2)c1NC(=O)NS(=O)(=O)c1cc(C(=O)N(C)C)n(C)n1 [Example 33, 3-(N-((4-Fluoro-2-isopropyl-6-(tetrahydro-2H-pyran-4-yl)phenyl)carbamoyl)sulfamoyl)-N,N,1-trimethyl-1H-pyrazole-5-carboxamide]	400 to 800	–
CN(C)C(=O)Cn1ccc(S(=O)(=O)NC(=O)Nc2c3c(cc4c2CCC4)CCC3)n1 [Example 1, 2-(3-(N-((1,2,3,5,6,7-Hexahydro-s-indacen-4-yl)carbamoyl)sulfamoyl)-1H-pyrazol-1-yl)-N,N-dimethylacetamide]	3200 to 10000	160 to 640
CC(C)c1cccc(C(C)C)c1NC(=O)NS(=O)(=O)c1cc(C(=O)N(C)C2CC2)n(C)n1 [Example 43, N-Cyclopropyl-3-(N-((2,6-diisopropylphenyl)carbamoyl)sulfamoyl)-N,1-dimethyl-1H-pyrazole-5-carboxamide]	800 to 1600	40 to 160
CCN(C)C(=O)c1cc(S(=O)(=O)NC(=O)Nc2c(C(C)C)cc(F)cc2C(C)C)nn1C [Example 49, N-Ethyl-3-(N-((4-fluoro-2,6-diisopropylphenyl)carbamoyl)sulfamoyl)-N,1-dimethyl-1H-pyrazole-5-carboxamide]	400 to 800	160 to 640
CC(C)c1cc(F)cc(-c2cnn(C)c2)c1NC(=O)NS(=O)(=O)c1cc(C(=O)N(C)C)n(C)n1 [Example 35, 3-(N-((4-Fluoro-2-isopropyl-6-(1-methyl-H-pyrazol-4-yl)phenyl)carbamoyl)sulfamoyl)-N,N,1-trimethyl-1H-pyrazole-5-carboxamide]	< 400	640 to 2560
CCN(CC)C(=O)c1cc(S(=O)(=O)NC(=O)Nc2c3c(cc4c2CCC4)CCC3)nn1C [Example 65, N,N-Diethyl-3-(N-((1,2,3,5,6,7-hexahydro-s-indacen-4-yl)carbamoyl)sulfamoyl)-1-methyl-1H-pyrazole-5-carboxamide]	800 to 1600	40 to 160
CN(C)C(=O)C(C)(C)n1ccc(S(=O)(=O)NC(=O)Nc2c3c(cc4c2CCC4)CCC3)n1 [Example 83, 2-(3-(N-((1,2,3,5,6,7-Hexahydro-s-indacen-4-yl)carbamoyl)sulfamoyl)-1H-pyrazol-1-yl)-N,N,2-trimethylpropanamide]	800 to 1600	40 to 160
CN(CC#N)C(=O)c1cc(S(=O)(=O)NC(=O)Nc2c3c(cc4c2CCC4)CCC3)nn1C [Example 53, N-(Cyanomethyl)-3-(N-((1,2,3,5,6,7-hexahydro-s-indacen-4-yl)carbamoyl)sulfamoyl)-N,1-dimethyl-1H-pyrazole-5-carboxamide]	800 to 1600	160 to 640
COCCN(CCOC)C(=O)c1cc(S(=O)(=O)NC(=O)Nc2c3c(cc4c2CCC4)CCC3)nn1C [Example 26, 3-(N-((1,2,3,5,6,7-Hexahydro-s-indacen-4-yl)carbamoyl)sulfamoyl)-N,N-bis(2-methoxyethyl)-1-methyl-1H-pyrazole-5-carboxamide]	400 to 800	40 to 160
CC(C)c1cc(F)cc(-c2cccnc2)c1NC(=O)NS(=O)(=O)c1cc(C(=O)N(C)C)n(C)n1 [Example 41, 3-(N-((4-Fluoro-2-isopropyl-6-(pyridin-3-yl)phenyl)carbamoyl)sulfamoyl)-N,N,1-trimethyl-1H-pyrazole-5-carboxamide]	< 400	–
